Experimental findings from article PMC6273036, “N-Alkoxyphenylhydroxynaphthalenecarboxamides and Their Antimycobacterial Activity” (Molecules, 2016) are described below.

In brackets after ≈: the same amount, converted by molar mass. Where only a bound is given, the exact number is not on record here.

Data set [1] deals with Mycobacterium tuberculosis H37Ra ATCC 25177. The data set is described as follows: In vitro antimycobacterial evaluation (alamarBlue, MIC) against M. tuberculosis. In kind it is cell-based. The conditions noted are these: 168 h, M. tuberculosis H37Ra ATCC 25177, MIC = 90% or greater (IC90) reduction of growth, 7 days. The procedure: The evaluation of the in vitro antimycobacterial activity of the compounds was performed against Mycobacterium tuberculosis H37Ra ATCC 25177 (MT), M. kansasii DSM 44162 (MK) and M. smegmatis ATCC 700084 (MS), see Table 1. To lower risk and make manipulation in the laboratory easier, surrogate model pathogens for M. tuberculosis can be used in laboratory studies. Avirulent M. tuberculosis strain H37Ra is very closely related to and has similar pathology as human-infecting M. tuberculosis strains, making it a good model for study especially because of the lower risk for laboratory workers. M. kansasii, the most virulent of the NTM, causes nontuberculous mycobacterial lung infections, which are now very common, and can be indistinguishable from tuberculosis. M. smegmatis is an ideal representative of a fast-growing nonpathogenic microorganism, particularly useful in studying basic cellular processes of special relevance to pathogenic mycobacteria. Therefore additionally M. kansasii and M. smegmatis were chosen as model species for screening of prospective antimycobacterial drugs to control mycobacterial diseases. The potency of the compounds was expressed as the minimum inhibitory concentration (MIC) that is defined for mycobacteria as 90% or greater (IC90) reduction of growth in comparison with the control.
Mycobacterium tuberculosis H37Ra ATCC 25177 was grown in Middlebrook broth (MB), supplemented with Oleic-Albumin-Dextrose-Catalase (OADC) supplement (Becton, Dickinson & Comp., Franklin Lakes, NJ, USA) and mycobactin J (2 μg/mL). At log phase growth, a culture sample (10 mL) was centrifuged at 15,000 rpm/20 min using a bench top centrifuge (Model CR 4-12, Jouan Inc., Winchester, VA, USA). Following the removal of the supernatant, the pellet was washed in fresh Middlebrook 7H9GC broth and re-suspended in fresh, ODAC-supplemented MB (10 mL). The turbidity was adjusted to match McFarland standard No. 1 (3 × 10^8 cfu) with MB broth. A further 1:20 dilution of the culture was then performed in MB broth. The antimicrobial susceptibility of M. tuberculosis was investigated in a 96-well plate format. In these experiments, sterile deionised water (300 µL) was added to all outer-perimeter wells of the plates to minimize evaporation of the medium in the test wells during incubation. Each evaluated compound (100 µL) was incubated with M. tuberculosis (100 µL). Dilutions of each compound were prepared in duplicate. For all synthesized compounds, final concentrations ranged from 1000 μg/mL to 8 μg/mL. All compounds were dissolved in DMSO, and subsequent dilutions were made in supplemented MB. The plates were sealed with parafilm and incubated at 37 °C for 7 days. Following incubation, a 10% addition of alamarBlue (AbD Serotec, Kidlington, UK) was mixed into each well, and readings at 570 nm and 600 nm were taken, initially for background subtraction and subsequently after 24 h re-incubation. The background subtraction is necessary for strongly coloured compounds, where the colour may interfere with the interpretation of any colour change. For non-interfering compounds, a blue colour in the well was interpreted as the absence of growth, and a pink colour was scored as growth.
The minimum inhibitory concentration (MIC) was defined as the lowest concentration of the compound at which no visible bacterial growth was observed, i.e., the MIC is the lowest concentration that prevented a visual colour change from blue to pink. MIC is defined for mycobacteria as 90% or greater (IC90) reduction of growth in comparison with the control. The MIC/IC90 value is routinely and widely used in bacterial assays and is a standard detection limit according to the Clinical and Laboratory Standards Institute (CLSI, www.clsi.org). Rifampicin and isoniazid (Sigma-Aldrich) were used as the standards as they are clinically used antimycobacterial drugs.
Background: The colour change of resazurin is a common sign of viable cells or microbes.

The next data set has as its system M. smegmatis ATCC 700084. The data set is described as follows: In vitro antimycobacterial evaluation (broth dilution micro-method, MIC) against M. smegmatis. It counts as cell-based. The conditions noted are these: Mycolicibacterium smegmatis, ATCC700084, 72 h; Mycobacterium smegmatis ATCC 700084; MIC = IC90; 3 days incubation, visual. Background: In broth dilution the organism is exposed to a series of concentrations in liquid medium.

In data set [2] the test system is Mycobacterium kansasii DSM 44162. As to the kind of experiment: In vitro antimycobacterial evaluation (broth dilution micro-method, MIC) against M. kansasii. The conditions noted are these: DSM44162, 168 h, M. kansasii DSM 44162, MIC = IC90, 7 days incubation, visual. In kind it is cell-based.
The test system of data set [3] is Mycobacterium tuberculosis H37Ra ATCC 25177. The data set is described as follows: MTT assay, viability of M. tuberculosis H37Ra. The conditions noted are these: at the tested concentration equal to MICs; 7 days; positive result when viability less than 70%. In kind it is cell-based. As to the method: The MTT assay is a well-characterized method of assessing cell growth through measurement of respiration. For the purpose of this assay, a positive result was recorded when the MTT measured viability of M. tuberculosis H37Ra was less than 70% after exposure to the MIC of each test compound.
For the MTT (3-(4,5-dimethylthiazol-2-yl)-2,5-diphenyltetrazolium bromide) assay, the outer wells of a 96-well plate were filled with 200 µL of sterile water, and the inner wells were filled with 100 µL of the tested compound at the MIC to be examined. Compounds were prepared as previously stated and diluted in Middlebrook media to achieve the desired concentration. Mycobacterium tuberculosis H37Ra ATCC 25177 was suspended in ODAC supplemented Middlebrook broth at a MacFarland standard of 1.0 and then diluted 1:20, using Middlebrook broth as a diluent. The diluted mycobacteria (100 µL) were added to each well containing the compound to be tested. A negative growth control was composed of 100 µL of DMSO and 100 µL of the media, and the diluted mycobacteria in broth absent of inhibiting compounds were used as a positive growth control. All compounds and controls were prepared in triplicate. Plates were incubated at 37 °C for 7 days. After the incubation period, 10% well volume of MTT reagent was mixed into each well and incubated at 37 °C for 24 h. The reagent and media were then aspirated from the wells, to which 50 µL 99% isopropanol was then added, and the plates were read at 570 nm. The absorbance readings from the cells, grown in the presence of the tested compounds, were compared with uninhibited cell growth (using DMSO as the blank) to determine the relative percent viability. The percent viability was determined through the MTT assay. The percent viability is calculated through comparison of a measured value against that of the uninhibited control: %viability = OD570E/OD570P × 100, where OD570E is the reading from the compound-exposed cells, while OD570P is the reading from the uninhibited cells (positive control). Cytotoxic potential is determined by a percent viability of <70%.
For orientation: Formazan colour is commonly taken as a measure of viable cells.

Data set [4] has as its system human monocytic leukemia THP-1 cells. As to the kind of experiment: In vitro antiproliferative assay (WST-1). The conditions noted are these: THP-1, 24 h, read-out: IC50 (antiproliferative activity).
Method: Human monocytic leukemia THP-1 cells were used for in vitro antiproliferative assay. Cells were obtained from the European Collection of Cell Cultures (ECACC, Salisbury, UK) and routinely cultured in RPMI 1640 medium supplemented with 10% fetal bovine serum, 2% L-glutamine, 1% penicillin and streptomycin at 37 °C with 5% CO2. Cells were passaged at approximately one-week intervals. Antiproliferative activity of the compounds was determined using a Water Soluble Tetrazolium Salts-1 (WST-1, 2-(4-iodophenyl)-3-(4-nitrophenyl)-5-(2,4-disulfophenyl)-2H-tetrazolium) assay kit (Roche Diagnostics, Mannheim, Germany) according to the manufacturer’s instructions. The tested compounds were dissolved in DMSO and added in five increasing concentrations (0.37, 1.1, 3.3, 10 and 30 μM) to the cell suspension in the culture RPMI 1640 medium. The maximum concentration of DMSO in the assays never exceeded 0.1%. Subsequently, the cells were incubated for 24 h at 37 °C with 5% CO2. For WST-1 assays, cells were seeded into 96-well plates (5 × 10^4 cells/well in 100 μL culture medium) in triplicate in serum-free RPMI 1640 medium, and measurements were taken 24 h after the treatment with the compounds. The median inhibition concentration values, IC50, were deduced through the production of a dose-response curve. All data were evaluated using GraphPad Prism 5.00 software (GraphPad Software, San Diego, CA, USA).

One may read the MIC as the least concentration at which growth counts as inhibited. For orientation: IC50 means the concentration that inhibits the measured activity by half. `CCCCOc1cccc(NC(=O)c2c(O)ccc3ccccc23)c1` [Compound 5b, N-(3-Butoxyphenyl)-2-hydroxynaphthalene-1-carboxamide]: the MIC in data set [1] was determined as 23 µM (≈ 7.71 µg/mL); against M. smegmatis ATCC 700084, 381 µM (≈ 128 µg/mL); in data set [2] it was 190 µM (≈ 63.7 µg/mL). Also, the “viability of M. tuberculosis H37Ra (MTT)” value in data set [3] was 7.38%. Moreover, the IC50 in data set [4] was over 30 µM.
On to `CO[C@H]1/C=C/O[C@@]2(C)Oc3c(C)c(O)c4c(O)c(c(/C=N/N5CCN(C)CC5)c(O)c4c3C2=O)NC(=O)/C(C)=C\C=C\[C@H](C)[C@H](O)[C@@H](C)[C@@H](O)[C@@H](C)[C@H](OC(C)=O)[C@@H]1C` [RIF, rifampicin, reference compound], for which the minimum inhibitory concentration (MIC) in data set [1] was determined as 10 µM (≈ 8.23 µg/mL); with M. smegmatis ATCC 700084 it was 19 µM (≈ 15.6 µg/mL); in data set [2] it was 0.15 µM (≈ 0.123 µg/mL). The IC50 in data set [4] was over 30 µM.
In the case of `CCC(C)Oc1ccc(NC(=O)c2ccc3ccccc3c2O)cc1` (centres unmarked) [Compound 14c, N-[4-(But-2-yloxy)phenyl]-1-hydroxynaphthalene-2-carboxamide], the values for the MIC (in data set [1]; against M. smegmatis ATCC 700084; in data set [2]) were 745 µM (≈ 250 µg/mL), 12 µM (≈ 4.02 µg/mL) and 23 µM (≈ 7.71 µg/mL), respectively. Besides, the IC50 in data set [4] stood at 3.41 ± 0.41 µM.
For `CCC(C)Oc1ccc(NC(=O)c2c(O)ccc3ccccc23)cc1` (centres unmarked) [Compound 7c, N-[4-(But-2-yloxy)phenyl]-2-hydroxynaphthalene-1-carboxamide], the MIC amounted to 23 µM (≈ 7.71 µg/mL) in data set [1], 12 µM (≈ 4.02 µg/mL) against M. smegmatis ATCC 700084 and 95 µM (≈ 31.9 µg/mL) in data set [2]. The “viability of M. tuberculosis H37Ra (MTT)” value in data set [3] came out at 8.86%. Further, the IC50 in data set [4] is over 30 µM.
For `CCCOc1ccc(NC(=O)c2c(O)ccc3ccccc23)cc1` [Compound 4c, 2-Hydroxy-N-(4-propoxyphenyl)naphthalene-1-carboxamide], in that order: 12 µM (≈ 3.86 µg/mL), 398 µM (≈ 128 µg/mL), 99 µM (≈ 31.8 µg/mL), 5.90% and over 30 µM.
Take `CCCOc1ccc(NC(=O)c2ccc3ccccc3c2O)cc1` [Compound 11c, 1-Hydroxy-N-(4-propoxyphenyl)naphthalene-2-carboxamide]: the MIC was 778 µM (≈ 250 µg/mL) in data set [1], 796 µM (≈ 256 µg/mL) against M. smegmatis ATCC 700084 and 24 µM (≈ 7.71 µg/mL) in data set [2]. In data set [4], the IC50 is over 30 µM.
For `CCCCOc1ccc(NC(=O)c2c(O)ccc3ccccc23)cc1` [Compound 5c, N-(4-Butoxyphenyl)-2-hydroxynaphthalene-1-carboxamide], in that order: 745 µM (≈ 250 µg/mL), 763 µM (≈ 256 µg/mL), 95 µM (≈ 31.9 µg/mL) and over 30 µM.
The corresponding values for `CC(C)Oc1cccc(NC(=O)c2c(O)ccc3ccccc23)c1` [Compound 6b, 2-Hydroxy-N-[3-(prop-2-yloxy)phenyl]naphthalene-1-carboxamide] are 778 µM (≈ 250 µg/mL), 398 µM (≈ 128 µg/mL), 199 µM (≈ 64 µg/mL) and 8.84 ± 0.22 µM.
Turning to `CCOc1cccc(NC(=O)c2ccc3ccccc3c2O)c1` [Compound 10b, N-(3-Ethoxyphenyl)-1-hydroxynaphthalene-2-carboxamide], the MIC in data set [1] was found to be 813 µM (≈ 250 µg/mL); against M. smegmatis ATCC 700084, 832 µM (≈ 256 µg/mL); in data set [2], 52 µM (≈ 16 µg/mL). For the same compound, the IC50 in data set [4] amounted to 3.02 ± 0.96 µM.
The corresponding values for `CCC(C)Oc1ccccc1NC(=O)c1c(O)ccc2ccccc12` (centres unmarked) [Compound 7a, N-[2-(But-2-yloxy)phenyl]-2-hydroxynaphthalene-1-carboxamide] are 44 µM (≈ 14.8 µg/mL), 763 µM (≈ 256 µg/mL), 95 µM (≈ 31.9 µg/mL) and 8.35 ± 1.25 µM.
For `CC(C)Oc1ccc(NC(=O)c2ccc3ccccc3c2O)cc1` [Compound 13c, 1-Hydroxy-N-[4-(prop-2-yloxy)phenyl]naphthalene-2-carboxamide], in that order: 778 µM (≈ 250 µg/mL), 796 µM (≈ 256 µg/mL), 49 µM (≈ 15.7 µg/mL) and 9.39 ± 1.39 µM.
Turning to `CCCCOc1ccccc1NC(=O)c1c(O)ccc2ccccc12` [Compound 5a, N-(2-Butoxyphenyl)-2-hydroxynaphthalene-1-carboxamide], the results for the MIC (in data set [1]; against M. smegmatis ATCC 700084; in data set [2]) were 745 µM (≈ 250 µg/mL), 763 µM (≈ 256 µg/mL) and 763 µM (≈ 256 µg/mL), respectively. Besides, the IC50 in data set [4] is over 30 µM.
For the compound `CCCCOc1ccc(NC(=O)c2ccc3ccccc3c2O)cc1` [Compound 12c, N-(4-Butoxyphenyl)-1-hydroxynaphthalene-2-carboxamide], the minimum inhibitory concentration (MIC) in data set [1] is 745 µM (≈ 250 µg/mL); against M. smegmatis ATCC 700084, 763 µM (≈ 256 µg/mL); in data set [2] it was 23 µM (≈ 7.71 µg/mL). Besides, the IC50 in data set [4] was over 30 µM.
The corresponding values for `CCC(C)Oc1ccccc1NC(=O)c1ccc2ccccc2c1O` (centres unmarked) [Compound 14a, N-[2-(But-2-yloxy)phenyl]-1-hydroxynaphthalene-2-carboxamide] are 745 µM (≈ 250 µg/mL), 763 µM (≈ 256 µg/mL), 47 µM (≈ 15.8 µg/mL) and 9.03 ± 1.18 µM.
Consider `CCCOc1ccccc1NC(=O)c1c(O)ccc2ccccc12` [Compound 4a, 2-Hydroxy-N-(2-propoxyphenyl)naphthalene-1-carboxamide], for which the minimal inhibitory concentration (MIC) in data set [1] was 37 µM (≈ 11.9 µg/mL); against M. smegmatis ATCC 700084 it was 796 µM (≈ 256 µg/mL); in data set [2], 99 µM (≈ 31.8 µg/mL). In addition, the IC50 in data set [4] was over 30 µM.
Take `CCCOc1cccc(NC(=O)c2c(O)ccc3ccccc23)c1` [Compound 4b, 2-Hydroxy-N-(3-propoxyphenyl)naphthalene-1-carboxamide]: the MIC in data set [1] was found to be 46 µM (≈ 14.8 µg/mL); with M. smegmatis ATCC 700084, 398 µM (≈ 128 µg/mL); in data set [2] it was 199 µM (≈ 64 µg/mL). Besides, the IC50 in data set [4] stood at 8.97 ± 0.34 µM.
In the case of `CC(C)Oc1cccc(NC(=O)c2ccc3ccccc3c2O)c1` [Compound 13b, 1-Hydroxy-N-[3-(prop-2-yloxy)phenyl]naphthalene-2-carboxamide], the MIC in data set [1] came to 389 µM (≈ 125 µg/mL); against M. smegmatis ATCC 700084, 796 µM (≈ 256 µg/mL); in data set [2] it was 796 µM (≈ 256 µg/mL). In data set [4], the IC50 stood at 4.32 ± 0.74 µM.
